From patent US10167262B2, “Herbicidal substituted 3-arylpyrazoles” (FMC CORPORATION, priority 2014, dated 2019)

Experiments:
Type in all cases: in vivo
[1] = test system: velvetleaf (Abutilon theophrasti); experiment: Test C pre-/postemergence greenhouse test, plant response rating 0-100; conditions: Postemergence; for Plant response rating, Velvetleaf: scale 0 to 100
From the text: (§1) Seeds of plant species selected from blackgrass (Alopecurus myosuroides), Italian ryegrass (Lolium multiflorum), winter wheat (Triticum aestivum), galium (catchweed bedstraw, Galium aparine), corn (Zea mays), large (Lg) crabgrass (Digitaria sanguinalis), giant foxtail (Setaria faberii), johnsongrass (Sorghum halepense), lambsquarters (Chenopodium album), morningglory (Ipomoea coccinea), yellow nutsedge (Cyperus esculentus), pigweed (Amaranthus retroflexus), ragweed (common ragweed, Ambrosia elatior), soybean (Glycine max), barnyardgrass (Echinochloa crus-galli), oilseed rape (Brassica napus), waterhemp (common waterhemp, Amaranthus rudis), and velvetleaf (Abutilon theophrasti) were planted into a blend of loam soil and sand and treated preemergence with test chemicals formulated in a non-phytotoxic solvent mixture which included a surfactant.
(§2) At the same time, plants selected from these crop and weed species and also winter barley (Hordeum vulgare), bermudagrass (Cynodon dactylon), downy bromegrass (Bromus tectorum), canarygrass (Phalaris minor), cocklebur (common cocklebur, Xanthium strumarium), woolly cupgrass (Eriochloa villosa), deadnettle (henbit deadnettle, Lamium amplexicaule), green foxtail (Setaria viridis), goosegrass (Eleusine indica), surinam grass (Brachiaria decumbens), windgrass (Apera spica-venti), chickweed (common chickweed, Stellaria media), kochia (Kochia scoparia), and wild oat (Avena fatua), were planted in pots containing Redi-Earth® planting medium (Scotts Company, 14111 Scottslawn Road, Marysville, Ohio 43041) comprising spaghnum peat moss, vermiculite, wetting agent and starter nutrients and treated with postemergence applications of test chemicals formulated in the same manner. Plants ranged in height from 2 to 18 cm (1- to 4-leaf stage) for postemergence treatments. Treated plants and controls were maintained in a greenhouse for 13 to 15 days, after which time all species were compared to controls and visually evaluated. Plant response ratings, summarized in Table C, are based on a scale of 0 to 100 where 0 is no effect and 100 is complete control. A dash (-) response means no test result.

[2] = test system: ragweed (common ragweed, Ambrosia elatior); experiment: as above; conditions: Postemergence; for Plant response rating, Ragweed: scale 0 to 100
From the text: as §1, §2

[3] = test system: Italian ryegrass (Lolium multiflorum); experiment: as above; conditions: Postemergence; for Plant response rating, Ryegrass, Italian: scale 0 to 100
From the text: as §1, §2

[4] = test system: galium (catchweed bedstraw, Galium aparine); experiment: as above; conditions: Postemergence; for Plant response rating, Galium: scale 0 to 100
From the text: as §1, §2

[5] = test system: morningglory (Ipomoea coccinea); experiment: as above; conditions: Postemergence; for Plant response rating, Morningglory: scale 0 to 100
From the text: as §1, §2

[6] = test system: velvetleaf (Abutilon theophrasti); experiment: Test A pre-/postemergence greenhouse herbicide test, visual injury rating 0-100
Outline: (§3)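 Greenhouse plants received compound either as directed soil spray at planting or as postemergence spray at the one- to two-leaf stage (2–10 cm). Evaluated after about 10 days by visual comparison with untreated controls.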

[7] = test system: pigweed (Amaranthus retroflexus); experiment: as above
Outline: as §3

[8] = test system: large (Lg) crabgrass (Digitaria sanguinalis); experiment: as above
Outline: as §3

[9] = test system: morningglory (Ipomoea spp.); experiment: as above
Outline: as §3

corn (Zea mays) = experiment: as above
Outline: as §3

[10] = test system: barnyardgrass (Echinochloa crus-galli); experiment: as above
Outline: as §3

[11] = test system: giant foxtail (Setaria faberii); experiment: as above
Outline: as §3

[12] = test system: wheat (Triticum aestivum); experiment: as above
Outline: as §3

O=C(c1ccccc1)c1cn(S(=O)(=O)CCl)nc1-c1cc(Cl)cc(Cl)c1 [Compound 1]
0: Plant response rating (0 to 100), Ryegrass, Italian ([3]; 62 g ai/ha) | Plant response rating (0 to 100), Ryegrass, Italian ([3]; 125 g ai/ha) | Plant response rating, Ryegrass, Italian ([3]; 250 g ai/ha) | Plant response rating (0 to 100), Galium ([4]; 31 g ai/ha) | Plant response rating (0 to 100), Galium ([4]; 62 g ai/ha) | Plant response rating (0 to 100), Galium ([4]; 125 g ai/ha) | Plant response rating (0 to 100), Morningglory ([5]; 62 g ai/ha) | Plant response rating (0 to 100), Morningglory ([5]; 125 g ai/ha) | Plant response rating, Morningglory ([5]; 250 g ai/ha) | Plant response rating (0 to 100 scale), Crabgrass, Large ([8]; Postemergence, 125 g ai/ha) | Plant response rating (0 to 100 scale), Crabgrass, Large ([8]; Postemergence, 500 g ai/ha) | Crabgrass, Large plant response rating (0 = no effect, 100 = complete control) ([8]; Preemergence, 125 g ai/ha) | Plant response rating (0 to 100 scale), Crabgrass, Large ([8]; Preemergence, 500 g ai/ha) | Plant response rating (0 to 100 scale), Morningglory ([9]; Postemergence, 125 g ai/ha) | Plant response rating (0 to 100 scale), Morningglory ([9]; Postemergence, 500 g ai/ha) | Morningglory plant response rating (0 = no effect, 100 = complete control) ([9]; Preemergence, 125 g ai/ha) | Plant response rating (0 to 100 scale), Morningglory ([9]; Preemergence, 500 g ai/ha) | Plant response rating (0 to 100 scale), Corn (corn (Zea mays); Postemergence, 125 g ai/ha) | Plant response rating (0 to 100 scale), Corn (corn (Zea mays); Postemergence, 500 g ai/ha) | Corn plant response rating (0 = no effect, 100 = complete control) (corn (Zea mays); Preemergence, 125 g ai/ha) | Plant response rating (0 to 100 scale), Corn (corn (Zea mays); Preemergence, 500 g ai/ha) | Plant response rating (0 to 100 scale), Barnyardgrass ([10]; Postemergence, 125 g ai/ha) | Plant response rating (0 to 100 scale), Barnyardgrass ([10]; Postemergence, 500 g ai/ha) | Barnyardgrass plant response rating (0 = no effect, 100 = complete control) ([10]; Preemergence, 125 g ai/ha) | Plant response rating (0 to 100 scale), Barnyardgrass ([10]; Preemergence, 500 g ai/ha) | Plant response rating (0 to 100 scale), Foxtail, Giant ([11]; Postemergence, 125 g ai/ha) | Plant response rating (0 to 100 scale), Foxtail, Giant ([11]; Postemergence, 500 g ai/ha) | Foxtail, Giant plant response rating (0 = no effect, 100 = complete control) ([11]; Preemergence, 125 g ai/ha) | Plant response rating (0 to 100 scale), Foxtail, Giant ([11]; Preemergence, 500 g ai/ha) | Plant response rating (0 to 100 scale), Wheat ([12]; Postemergence, 125 g ai/ha) | Plant response rating (0 to 100 scale), Wheat ([12]; Postemergence, 500 g ai/ha) | Wheat plant response rating (0 = no effect, 100 = complete control) ([12]; Preemergence, 125 g ai/ha) | Plant response rating (0 to 100 scale), Wheat ([12]; Preemergence, 500 g ai/ha)
90: Plant response rating (0 to 100 scale), Velvetleaf ([6]; Postemergence, 125 g ai/ha) | Plant response rating (0 to 100 scale), Velvetleaf ([6]; Postemergence, 500 g ai/ha) | Plant response rating (0 to 100 scale), Pigweed ([7]; Postemergence, 500 g ai/ha)
50: Plant response rating (0 to 100), Ragweed ([2]; 125 g ai/ha)
65: Plant response rating, Ragweed ([2]; 250 g ai/ha)
20: Plant response rating, Galium ([4]; 250 g ai/ha) | Velvetleaf plant response rating (0 = no effect, 100 = complete control) ([6]; Preemergence, 125 g ai/ha) | Plant response rating (0 to 100 scale), Velvetleaf ([6]; Preemergence, 500 g ai/ha)
80: Plant response rating, Velvetleaf ([1]; 250 g ai/ha) | Plant response rating (0 to 100 scale), Pigweed ([7]; Postemergence, 125 g ai/ha) | Plant response rating (0 to 100 scale), Pigweed ([7]; Preemergence, 500 g ai/ha)
70: Plant response rating (0 to 100), Velvetleaf ([1]; 62 g ai/ha)
40: Plant response rating (0 to 100), Ragweed ([2]; 62 g ai/ha) | Pigweed plant response rating (0 = no effect, 100 = complete control) ([7]; Preemergence, 125 g ai/ha)
75: Plant response rating (0 to 100), Velvetleaf ([1]; 125 g ai/ha)

Cn1cc(C(=O)c2cccs2)c(-c2cc(Cl)cc(Cl)c2)n1 [Compound 17]
5: Plant response rating, Ryegrass, Italian ([3]; 500 g ai/ha) | Plant response rating (0 to 100), Morningglory ([5]; 62 g ai/ha) | Plant response rating (0 to 100), Morningglory ([5]; 125 g ai/ha)
15: Plant response rating, Morningglory ([5]; 500 g ai/ha)
80: Plant response rating (0 to 100), Velvetleaf ([1]; 62 g ai/ha) | Plant response rating (0 to 100), Velvetleaf ([1]; 125 g ai/ha) | Plant response rating, Velvetleaf ([1]; 250 g ai/ha) | Plant response rating, Velvetleaf ([1]; 500 g ai/ha)
20: Plant response rating, Galium ([4]; 500 g ai/ha)
10: Plant response rating (0 to 100), Ragweed ([2]; 125 g ai/ha) | Plant response rating, Ragweed ([2]; 250 g ai/ha) | Plant response rating, Ragweed ([2]; 500 g ai/ha) | Plant response rating, Morningglory ([5]; 250 g ai/ha)
0: Plant response rating (0 to 100), Ragweed ([2]; 62 g ai/ha) | Plant response rating (0 to 100), Ryegrass, Italian ([3]; 62 g ai/ha) | Plant response rating (0 to 100), Ryegrass, Italian ([3]; 125 g ai/ha) | Plant response rating, Ryegrass, Italian ([3]; 250 g ai/ha) | Plant response rating (0 to 100), Galium ([4]; 62 g ai/ha) | Plant response rating (0 to 100), Galium ([4]; 125 g ai/ha) | Plant response rating, Galium ([4]; 250 g ai/ha)

CCn1cc(C(=O)c2cccs2)c(-c2cc(Cl)cc(Cl)c2)n1 [Compound 18]
25: Plant response rating, Ragweed ([2]; 500 g ai/ha)
70: Plant response rating, Velvetleaf ([1]; 250 g ai/ha)
50: Plant response rating (0 to 100), Velvetleaf ([1]; 62 g ai/ha)
65: Plant response rating (0 to 100), Velvetleaf ([1]; 125 g ai/ha)
15: Plant response rating, Ragweed ([2]; 250 g ai/ha)
0: Plant response rating (0 to 100), Ryegrass, Italian ([3]; 62 g ai/ha) | Plant response rating (0 to 100), Ryegrass, Italian ([3]; 125 g ai/ha) | Plant response rating, Ryegrass, Italian ([3]; 250 g ai/ha) | Plant response rating (0 to 100), Galium ([4]; 62 g ai/ha) | Plant response rating (0 to 100), Galium ([4]; 125 g ai/ha) | Plant response rating, Galium ([4]; 250 g ai/ha)
5: Plant response rating, Ryegrass, Italian ([3]; 500 g ai/ha) | Plant response rating (0 to 100), Morningglory ([5]; 62 g ai/ha)
10: Plant response rating (0 to 100), Ragweed ([2]; 125 g ai/ha) | Plant response rating (0 to 100), Morningglory ([5]; 125 g ai/ha)
35: Plant response rating, Galium ([4]; 500 g ai/ha)
20: Plant response rating, Morningglory ([5]; 250 g ai/ha)
45: Plant response rating, Morningglory ([5]; 500 g ai/ha)
80: Plant response rating, Velvetleaf ([1]; 500 g ai/ha)

Clc1cc(Cl)cc(-c2n[nH]cc2C(=NNc2ccccc2Cl)c2ccccc2)c1 [Compound 66]
90: Plant response rating, Velvetleaf ([1]; 500 g ai/ha) | Plant response rating (0 to 100 scale), Velvetleaf ([6]; Postemergence, 1000 g ai/ha)
5: Plant response rating, Galium ([4]; 500 g ai/ha)
95: Plant response rating, Ragweed ([2]; 500 g ai/ha)
10: Plant response rating (0 to 100), Ragweed ([2]; 62 g ai/ha)
80: Plant response rating, Velvetleaf ([1]; 250 g ai/ha) | Plant response rating (0 to 100), Ragweed ([2]; 125 g ai/ha) | Plant response rating (0 to 100 scale), Velvetleaf ([6]; Preemergence, 1000 g ai/ha) | Plant response rating (0 to 100 scale), Pigweed ([7]; Postemergence, 1000 g ai/ha) | Plant response rating (0 to 100 scale), Pigweed ([7]; Preemergence, 1000 g ai/ha)
55: Plant response rating (0 to 100), Velvetleaf ([1]; 62 g ai/ha) | Plant response rating (0 to 100), Velvetleaf ([1]; 125 g ai/ha)
0: Plant response rating (0 to 100), Ryegrass, Italian ([3]; 62 g ai/ha) | Plant response rating (0 to 100), Ryegrass, Italian ([3]; 125 g ai/ha) | Plant response rating, Ryegrass, Italian ([3]; 250 g ai/ha) | Plant response rating, Ryegrass, Italian ([3]; 500 g ai/ha) | Plant response rating (0 to 100), Galium ([4]; 62 g ai/ha) | Plant response rating (0 to 100), Galium ([4]; 125 g ai/ha) | Plant response rating, Galium ([4]; 250 g ai/ha) | Plant response rating (0 to 100 scale), Crabgrass, Large ([8]; Postemergence, 1000 g ai/ha) | Plant response rating (0 to 100 scale), Crabgrass, Large ([8]; Preemergence, 1000 g ai/ha) | Plant response rating (0 to 100 scale), Morningglory ([9]; Postemergence, 1000 g ai/ha) | Plant response rating (0 to 100 scale), Morningglory ([9]; Preemergence, 1000 g ai/ha) | Plant response rating (0 to 100 scale), Corn (corn (Zea mays); Postemergence, 1000 g ai/ha) | Plant response rating (0 to 100 scale), Corn (corn (Zea mays); Preemergence, 1000 g ai/ha) | Plant response rating (0 to 100 scale), Barnyardgrass ([10]; Postemergence, 1000 g ai/ha) | Plant response rating (0 to 100 scale), Barnyardgrass ([10]; Preemergence, 1000 g ai/ha) | Plant response rating (0 to 100 scale), Foxtail, Giant ([11]; Postemergence, 1000 g ai/ha) | Plant response rating (0 to 100 scale), Foxtail, Giant ([11]; Preemergence, 1000 g ai/ha) | Plant response rating (0 to 100 scale), Wheat ([12]; Postemergence, 1000 g ai/ha) | Plant response rating (0 to 100 scale), Wheat ([12]; Preemergence, 1000 g ai/ha)
